Laboratory results taken from ChEMBL document CHEMBL3885881, “DrugMatrix”.

Species on record: Rattus norvegicus
Test: DrugMatrix - Regimen: Daily Repeat
Assay type: toxicity, organism-based, Sprague-Dawley
Design: regimen Daily Repeat, gender Male, age 6-8 weeks
Settings: in vivo, po, route oral GAVAGE, […]; for ABSOLUTE BASOPHIL / ABSOLUTE EOSINOPHIL / ABSOLUTE LYMPHOCYTE / ABSOLUTE MONOCYTE / ABSOLUTE SEGMENTED NEUTROPHIL / BASOPHIL / EOSINOPHIL / ERYTHROCYTE COUNT / HEMATOCRIT / HEMOGLOBIN / LEUKOCYTE COUNT / LYMPHOCYTE / MEAN CORPUSCULAR HEMOGLOBIN / MEAN CORPUSCULAR HEMOGLOBIN CONCENTRATION / MEAN CORPUSCULAR VOLUME / MONOCYTE / NEUTROPHIL / NUCLEATED RED BLOOD CELLS / PLATELET COUNT: tissue Blood; for ALANINE AMINOTRANSFERASE / ALBUMIN / ALKALINE PHOSPHATASE / ASPARTATE AMINOTRANSFERASE / BLOOD UREA NITROGEN / CARBON DIOXIDE / CHLORIDE / CHOLESTEROL / CREATINE PHOSPHOKINASE / CREATININE / GLUCOSE / LACTATE DEHYDROGENASE / LIPASE / PHOSPHORUS / POTASSIUM / SODIUM / TOTAL BILIRUBIN / TOTAL PROTEIN / URIC ACID: tissue Plasma
[1] = 6 mg/kg, 120 h, dose level Low, time 5 day
[2] = 74 mg/kg, 72 h, dose level High, time 3 day
[3] = 74 mg/kg, 120 h, dose level High, time 5 day

For `CO[C@H]1O[C@@H]2O[C@@]3(C)CC[C@H]4[C@H](C)CC[C@@H]([C@H]1C)[C@@]24OO3`, the “ABSOLUTE BASOPHIL” value [1] was 0 CELLS/uL, the “ABSOLUTE EOSINOPHIL” value [1] was 153 CELLS/uL and the “ABSOLUTE LYMPHOCYTE” value [1] was 12396 CELLS/uL. The “ABSOLUTE MONOCYTE” value [1] was 197.67 CELLS/uL, the “ABSOLUTE SEGMENTED NEUTROPHIL” value [1] was 1920 CELLS/uL and the BASOPHIL [1] was 0%. The EOSINOPHIL [1] was 1%, the “ERYTHROCYTE COUNT” value [1] was 5.88 x10E6/uL and the HEMATOCRIT [1] was 36.63%. For the same compound, the HEMOGLOBIN [1] was 13.47 G/DL, the “LEUKOCYTE COUNT” value [1] was 14.67 x10E3/uL and the LYMPHOCYTE [1] was 84.33%. The “MEAN CORPUSCULAR HEMOGLOBIN” value [1] was 22.93 pg, the “MEAN CORPUSCULAR HEMOGLOBIN CONCENTRATION” value [1] was 36.8 G/DL and the “MEAN CORPUSCULAR VOLUME” value [1] was 62.33 fL. The MONOCYTE [1] was 1.33%, the NEUTROPHIL [1] was 13.33% and the “NUCLEATED RED BLOOD CELLS” value [1] was 0 /100WBC. The “PLATELET COUNT” value [1] was 1198.67 x10E3/uL, the “ALANINE AMINOTRANSFERASE” value [1] was 52.67 u/L and the ALBUMIN [1] was 4.37 G/DL. For the same compound, the “ALKALINE PHOSPHATASE” value [1] was 430.33 u/L, the “ASPARTATE AMINOTRANSFERASE” value [1] was 101 u/L and the “BLOOD UREA NITROGEN” value [1] was 17.67 mg/dL. The “CARBON DIOXIDE” value [1] was 23.33 mmol/L, the CHLORIDE [1] was 105.67 MEQ/L and the CHOLESTEROL [1] was 58.67 mg/dL. For the same compound, the “CREATINE PHOSPHOKINASE” value [1] was 552.33 u/L, the CREATININE [1] was 0.16 mg/dL and the GLUCOSE [1] was 160 mg/dL. The “LACTATE DEHYDROGENASE” value [1] was 887.67 u/L, the LIPASE [1] was 8.33 u/L and the PHOSPHORUS [1] was 11.77 mg/dL. The POTASSIUM [1] was 6.02 MEQ/L, the SODIUM [1] was 144.53 MEQ/L and the “TOTAL BILIRUBIN” value [1] was 0.17 mg/dL. The “TOTAL PROTEIN” value [1] was 5.93 G/DL, the “URIC ACID” value [1] was 1.83 mg/dL and the “ABSOLUTE BASOPHIL” value [2] was 0 CELLS/uL. The “ABSOLUTE EOSINOPHIL” value [2] was 390 CELLS/uL, the “ABSOLUTE LYMPHOCYTE” value [2] was 14550 CELLS/uL and the “ABSOLUTE MONOCYTE” value [2] was 453 CELLS/uL. The “ABSOLUTE SEGMENTED NEUTROPHIL” value [2] was 1407 CELLS/uL, the BASOPHIL [2] was 0% and the EOSINOPHIL [2] was 2.33%. The “ERYTHROCYTE COUNT” value [2] was 5.21 x10E6/uL, the HEMATOCRIT [2] was 33.1% and the HEMOGLOBIN [2] was 12.6 G/DL. The “LEUKOCYTE COUNT” value [2] was 16.8 x10E3/uL, the LYMPHOCYTE [2] was 86.67% and the “MEAN CORPUSCULAR HEMOGLOBIN” value [2] was 24.23 pg. For the same compound, the “MEAN CORPUSCULAR HEMOGLOBIN CONCENTRATION” value [2] was 38.07 G/DL, the “MEAN CORPUSCULAR VOLUME” value [2] was 63.67 fL and the MONOCYTE [2] was 2.67%. The NEUTROPHIL [2] was 8.33%, the “NUCLEATED RED BLOOD CELLS” value [2] was 0 /100WBC and the “PLATELET COUNT” value [2] was 1173 x10E3/uL. For the same compound, the “ALANINE AMINOTRANSFERASE” value [2] was 46 u/L, the ALBUMIN [2] was 4.13 G/DL and the “ALKALINE PHOSPHATASE” value [2] was 349.67 u/L. The “ASPARTATE AMINOTRANSFERASE” value [2] was 77.33 u/L, the “BLOOD UREA NITROGEN” value [2] was 16 mg/dL and the “CARBON DIOXIDE” value [2] was 27 mmol/L. For the same compound, the CHLORIDE [2] was 103.33 MEQ/L, the CHOLESTEROL [2] was 66.67 mg/dL and the “CREATINE PHOSPHOKINASE” value [2] was 259.33 u/L. The CREATININE [2] was 0.23 mg/dL, the GLUCOSE [2] was 144.67 mg/dL and the “LACTATE DEHYDROGENASE” value [2] was 331.33 u/L. It also gave an LIPASE [2] of 9.33 u/L, a PHOSPHORUS [2] of 10.07 mg/dL and a POTASSIUM [2] of 6.54 MEQ/L. The SODIUM [2] was 142.23 MEQ/L, the “TOTAL BILIRUBIN” value [2] was 0.2 mg/dL and the “TOTAL PROTEIN” value [2] was 5.63 G/DL. For the same compound, the “URIC ACID” value [2] was 1.17 mg/dL, the “ABSOLUTE BASOPHIL” value [3] was 0 CELLS/uL and the “ABSOLUTE EOSINOPHIL” value [3] was 257.33 CELLS/uL. The “ABSOLUTE LYMPHOCYTE” value [3] was 17040 CELLS/uL, the “ABSOLUTE MONOCYTE” value [3] was 413.67 CELLS/uL and the “ABSOLUTE SEGMENTED NEUTROPHIL” value [3] was 1822.33 CELLS/uL. The BASOPHIL [3] was 0%, the EOSINOPHIL [3] was 1.33% and the “ERYTHROCYTE COUNT” value [3] was 6.13 x10E6/uL. For the same compound, the HEMATOCRIT [3] was 36.63%, the HEMOGLOBIN [3] was 13.57 G/DL and the “LEUKOCYTE COUNT” value [3] was 19.53 x10E3/uL. The LYMPHOCYTE [3] was 87%, the “MEAN CORPUSCULAR HEMOGLOBIN” value [3] was 22.17 pg and the “MEAN CORPUSCULAR HEMOGLOBIN CONCENTRATION” value [3] was 37.03 G/DL. For the same compound, the “MEAN CORPUSCULAR VOLUME” value [3] was 59.77 fL, the MONOCYTE [3] was 2% and the NEUTROPHIL [3] was 9.67%. The “NUCLEATED RED BLOOD CELLS” value [3] was 0.33 /100WBC, the “PLATELET COUNT” value [3] was 1300.33 x10E3/uL and the “ALANINE AMINOTRANSFERASE” value [3] was 55.33 u/L. For the same compound, the ALBUMIN [3] was 4.3 G/DL, the “ALKALINE PHOSPHATASE” value [3] was 329 u/L and the “ASPARTATE AMINOTRANSFERASE” value [3] was 100 u/L. The “BLOOD UREA NITROGEN” value [3] was 16.33 mg/dL, the “CARBON DIOXIDE” value [3] was 25 mmol/L and the CHLORIDE [3] was 102.67 MEQ/L. The CHOLESTEROL [3] was 51.67 mg/dL, the “CREATINE PHOSPHOKINASE” value [3] was 790.67 u/L and the CREATININE [3] was 0.21 mg/dL. For the same compound, the GLUCOSE [3] was 171.67 mg/dL, the “LACTATE DEHYDROGENASE” value [3] was 649.67 u/L and the LIPASE [3] was 9.67 u/L. For the same compound, the PHOSPHORUS [3] was 12.37 mg/dL, the POTASSIUM [3] was 5.73 MEQ/L and the SODIUM [3] was 143.53 MEQ/L. The “TOTAL BILIRUBIN” value [3] was 0.13 mg/dL, the “TOTAL PROTEIN” value [3] was 5.8 G/DL and the “URIC ACID” value [3] was 1.73 mg/dL.
